“And” between values parts separate entries of the source, which are not always exact repeats. Equal entries are not always repeated.
Test system: 439559-082-T-J2-PDC spheroids viability
Assay: Anticancer human tumor 439559-082-T-J2-PDC patient-derived colon adenocarcinoma cell line growth inhibition [GQUAD]
Conditions: for viability, T/C: stronger effect = lower value; for IC50: curve of compound
Excerpt: DNA G-quadruplex Stabilizer Agents in Combinations in Complex Spheroids
A high-throughput screen of multi-cell type tumor spheroids was designed to identify active combinations of DNA G-quadruplex stabilizer agents and targeted small molecules. Complex spheroids include a stromal component modeled by human endothelial cells (HUVEC) and fibroblasts modeled by human mesenchymal stem cells (MSCs). The concentration ranges selected for each drug and investigational agent were based upon clinically achievable concentrations if the clinical Cmax of the agent was known.
Compounds. The drugs and investigational agents: pidnarulex (CX-5461; NSC782164), APTO-253 (NSC789042), BRACO-19 (NSC847499), peposertib (NSC802822), ceralasertib (NSC780249), elimusertib (NSC800525), camonsertib (NSC841442), AZD-1390 (NSC803789), olaparib (NSC753686), talazoparib (NSC767125), ART-558 (NSC835418), sotorasib (NSC818433), MRTX-1133 (NSC836407), SN-38 (NSC673596), topotecan (NSC609699), etoposide (NSC141540), doxorubicin (NSC123127), gemcitabine (NSC613327), 5-fluorouracil (NSC19893), paclitaxel (NSC125973), vemurafenib (NSC761431), panobinostat (NSC761190), R-306465 (JNJ-16241199; NSC773264), adavosertib (NSC754352), TP-3654 (NSC805149), carboplatin (NSC241240), KSQ-4279 (NSC840948), and staurosporine (NSC755774) were obtained from the National Cancer Institute (NCI) Developmental Therapeutics Program Chemical Repository (34). The FDA-approved anticancer drug set is available from the NCI Developmental Therapeutics Program. […] The stock solutions were prepared in dimethyl sulfoxide (DMSO, Sigma-Aldrich, St. Louis, MO, cat. D2650) at 800-fold the tested concentration and stored at -70 degrees C prior to their use. All drugs and investigational agents were tested over a range starting from a high concentration at or near the clinical Cmax and decreasing in half-log increments. If the clinical Cmax for an agent had not been determined, the highest concentration tested was 10 microM.
2.3 Cell Culture. All cells were maintained in an incubator at 37 degrees C and 5% CO2 with 95% humidity. The PDC lines were cultured according to standard operating procedures established by the NCI PDMR. All PDCs were thawed and cultured in Matrigel-coated flasks prepared with a working solution of 1X Ham's F-12 nutrient mix, without supplementation (Invitrogen, cat. 11765054), 100 U/mL penicillin-streptomycin (Invitrogen, cat. 15140122), and 2.5% Matrigel (Corning Inc., cat. 354248) for the first three passages. The 857933-349-R-J2-PDC line was cultured in 6C/Colon 1B media, which includes advanced DMEM/F-12 (Thermo Fisher Scientific, cat. 12634028), 10 mM HEPES (Thermo Fisher Scientific, cat. 15630080), 1X GlutaMAX supplement (Thermo Fisher Scientific, cat. 35050061), 0.1 mg/mL primocin (InvivoGen, cat. ant-pm-2), 10% defined fetal bovine serum, heat inactivated (HyClone Laboratories Inc., cat. SH30070.03HI), 50% L-WRN conditioned media (ATCC, cat. CRL-3276), 1.25 mM N-Acetyl-L-cysteine (Sigma-Aldrich, cat. A9165), 10 mM nicotinamide (Sigma-Aldrich, cat. N0636), 1X B-27 supplement (Thermo Fisher Scientific, cat. 17504044), 1X N-2 supplement (Thermo Fisher Scientific, cat. 17502048), 10 microM Y-27632 dihydrochloride (Tocris Bioscience, cat. 1254), and 50 ng/mL human EGF recombinant protein (Thermo Fisher Scientific, cat. PHG0311). The 485176-168-R4-J1-PDC line was cultured in Panc media, which includes all 6C/Colon 1B media components plus 100 ng/mL human FGF-10 (Thermo Fisher Scientific, cat. 100-26), 500 nM SB-431542 (Selleckchem, cat. S1067), and gastrin (Tocris, cat. 3006).
[…]
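Also: spheroids exposed to the agents for 7 days before readout.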
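For viability, T/C in this document: percent of luminescence signal in DMSO vehicle wells taken as 100% viability.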

IC50 | Structure (SMILES) | viability, T/C (compound 0.0316 µM) | viability, T/C (compound 0.1 µM) | viability, T/C (compound 0.316 µM) | viability, T/C (compound 1 µM) | viability, T/C (compound 3.16 µM) | viability, T/C (compound 10 µM)
9.82 µM and 1.64 µM and 3.59 µM | C#Cc1c(F)ccc2cc(O)cc(-c3ncc4c(N5CC6CCC(C5)N6)nc(OCC56CCCN5CC(F)C6)nc4c3F)c12 (stereo unspecified) | 96.1% and 98.3% and 86.1% | 86.3% and 94.2% and 72.7% | 76.8% and 90.2% and 62.7% | 75.4% and 78.3% and 59.6% | 60.6% and 9.56% and 49.7% | 49% and 15.8% and 45.7%
> 10 µM | C=CC(=O)N1CCN(c2nc(=O)n(-c3c(C)ccnc3C(C)C)c3nc(-c4c(O)cccc4F)c(F)cc23)C(C)C1 (stereo unspecified) | 101% (2×) and 96.5% | 101% and 91.7% and 89.6% | 94.3% and 91.1% and 108% | 110% and 96.3% and 112% | 99% and 108% and 107% | 98.8% and 96.6% and 105%
> 10 µM | CC(C)n1c(=O)n(C)c2cnc3cc(F)c(-c4ccc(OCCCN5CCCCC5)nc4)cc3c21 | 110% and 92.9% and 102% | 103% and 115% and 91.5% | 117% and 111% and 110% | 107% and 114% and 98.3% | 116% and 117% and 110% | 95.4% and 101% and 102%

More lines, now with the values behind:

Structure (SMILES) | IC50 | viability, T/C (compound 0.0316 µM) | viability, T/C (compound 0.1 µM) | viability, T/C (compound 0.316 µM) | viability, T/C (compound 1 µM) | viability, T/C (compound 3.16 µM) | viability, T/C (compound 10 µM)
C=CCn1c(=O)c2cnc(Nc3ccc(N4CCN(C)CC4)cc3)nc2n1-c1cccc(C(C)(C)O)n1 | 8.76 µM and 4.36 µM and 3.55 µM | 109% and 94.2% and 108% | 91.1% and 90.4% and 90.3% | 86.3% and 89.2% and 88% | 104% and 78.4% and 93.7% | 110% and 62.9% and 53.1% | 43.5% and 20.1% and 21.9%
CC(=O)O[C@H]1C(=O)[C@@]2(C)[C@H]([C@H](OC(=O)c3ccccc3)[C@]3(O)C[C@H](OC(=O)[C@H](O)[C@@H](NC(=O)c4ccccc4)c4ccccc4)C(C)=C1C3(C)C)[C@]1(OC(C)=O)CO[C@@H]1C[C@@H]2O | 0.332 µM and 2.18 µM and 2.49 µM | 97.3% and 78.7% and 84.1% | 75.3% (2×) and 83.1% | 55.6% and 69.5% and 90.7% |  |  | 
CC(C)(O)C1CCC(Nc2ccc3ncc(-c4cccc(C(F)(F)F)c4)n3n2)CC1 (stereo unspecified) | > 10 µM and 1.5 µM and 1.86 µM | 100% and 101% and 106% | 76.5% and 92.8% and 98.9% | 60.8% and 103% and 99.9% | 57.9% and 71.8% and 90% | 53.2% and 7.83% and 15.9% | 49.5% and 12.5% and 13.8%
CC1COCCN1c1cc(-c2ccnn2C)c2ccnc(-c3ccn[nH]3)c2n1 (stereo unspecified) | 0.28 µM and 0.192 µM and 0.22 µM | 97.7% and 97.6% and 93.5% | 80.6% and 68.1% and 73.8% | 46.8% and 35.7% and 39.2% | 34.3% and 35.7% and 31.6% | 37.7% and 30.7% and 31.6% | 33.5% and 28.8% and 34%

From PubChem BioAssay AID2060510 (Molecular Pharmacology Branch, DTP, NCI, 2025)
